Holding throughout (experiment): relative viability (nuclei count vs DMSO), 5 days (fraction); higher = more cells survive
Compound in the test “Serdemetan + Pemetrexed”: c1ccc2c(CCNc3ccc(Nc4ccncc4)cc3)c[nH]c2c1 [Serdemetan] + Nc1nc2[nH]cc(CCc3ccc(C(=O)N[C@@H](CCC(=O)O)C(=O)O)cc3)c2c(=O)[nH]1 [Pemetrexed] (partner 0.2 µM)
In outline:
(§1)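 Lung cancer cell lines, seeded in 1536-well plates, were treated the following day by pin tool with a single drug or with five library-drug doses (not always all listed) in √10 steps on top of a fixed anchor-drug dose. Cells were fixed and nuclei stained in one step after 5 days, and nuclei were counted. Relative viability is the nuclei count for treated wells divided by that for vehicle wells, reported as medians of duplicate plates.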

Compound in the test “Selisistat + Dasatinib”: C1CC(C2=C(C1)C3=C(N2)C=CC(=C3)Cl)C(=O)N [Selisistat] + Cc1nc(Nc2ncc(C(=O)Nc3c(C)cccc3Cl)s2)cc(N2CCN(CCO)CC2)n1 [Dasatinib] (partner 0.075 µM)
In outline: as §1

Compound in the test “Serdemetan + Bortezomib”: c1ccc2c(CCNc3ccc(Nc4ccncc4)cc3)c[nH]c2c1 [Serdemetan] + CC(C)C[C@H](NC(=O)[C@H](Cc1ccccc1)NC(=O)c1cnccn1)B(O)O [Bortezomib] (partner 0.002 µM)
In outline:
as §1

Compound in the test “Serdemetan + Tozasertib”: c1ccc2c(CCNc3ccc(Nc4ccncc4)cc3)c[nH]c2c1 [Serdemetan] + Cc1cc(Nc2cc(N3CCN(C)CC3)nc(Sc3ccc(NC(=O)C4CC4)cc3)n2)n[nH]1 [Tozasertib] (partner 0.1 µM)
In outline:
as §1

Consider four cell lines from the supplement of paper PMC10307832.

Turning to PC-14, the relative viability with Serdemetan + Pemetrexed (first compound 0.04 µM) amounted to 0.133; with Serdemetan + Pemetrexed (first compound 0.1265 µM), 0.139; in the test with Serdemetan + Pemetrexed (first compound 1.265 µM), 0.137; with Serdemetan + Pemetrexed (first compound 4 µM) it was 0.143; with Selisistat + Dasatinib (first compound 0.4 µM), 0.259; with Selisistat + Dasatinib (first compound 1.265 µM), 0.302. Further, the relative viability in the test with Selisistat + Dasatinib (first compound 4 µM) came to 0.279; with Selisistat + Dasatinib (first compound 12.65 µM), 0.289; in the test with Selisistat + Dasatinib (first compound 40 µM) it was 0.3; with Serdemetan + Bortezomib (first compound 0.04 µM), 0.924; with Serdemetan + Bortezomib (first compound 0.1265 µM), 0.797; with Serdemetan + Bortezomib (first compound 0.4 µM), 0.791. Further, the relative viability with Serdemetan + Bortezomib (first compound 1.265 µM) was 0.606; with Serdemetan + Bortezomib (first compound 4 µM), 0.497; with Serdemetan + Tozasertib (first compound 0.04 µM), 0.522; with Serdemetan + Tozasertib (first compound 0.1265 µM), 0.595; with Serdemetan + Tozasertib (first compound 1.265 µM), 0.548; in the test with Serdemetan + Tozasertib (first compound 4 µM), 0.428.

For the cell line RERF-LC-KJ, the relative viability with Serdemetan + Pemetrexed (first compound 0.04 µM) came out at 0.455; with Serdemetan + Pemetrexed (first compound 0.1265 µM), 0.456; with Serdemetan + Pemetrexed (first compound 0.4 µM) it was 0.452; with Serdemetan + Pemetrexed (first compound 1.265 µM) it was 0.475; with Serdemetan + Pemetrexed (first compound 4 µM), 0.49; with Selisistat + Dasatinib (first compound 0.4 µM) it was 1.04. Further, the relative viability was determined as 0.813 with Selisistat + Dasatinib (first compound 1.265 µM); 0.818 with Selisistat + Dasatinib (first compound 4 µM); 0.625 in the test with Selisistat + Dasatinib (first compound 12.65 µM); 0.568 in the test with Selisistat + Dasatinib (first compound 40 µM); 1.19 with Serdemetan + Bortezomib (first compound 0.04 µM); 1.16 in the test with Serdemetan + Bortezomib (first compound 0.1265 µM). Further, the relative viability with Serdemetan + Bortezomib (first compound 0.4 µM) is 1.06; in the test with Serdemetan + Bortezomib (first compound 1.265 µM), 1.03; with Serdemetan + Bortezomib (first compound 4 µM), 0.797; with Serdemetan + Tozasertib (first compound 0.04 µM) it was 0.49; in the test with Serdemetan + Tozasertib (first compound 0.1265 µM), 0.441; in the test with Serdemetan + Tozasertib (first compound 0.4 µM), 0.479. Also, the figures for the relative viability in the test with Serdemetan + Tozasertib (first compound 1.265 µM) and with Serdemetan + Tozasertib (first compound 4 µM) were 0.455 and 0.469, respectively.

With SK-LU-1, the relative viability with Serdemetan + Pemetrexed (first compound 0.04 µM) was 0.941; with Serdemetan + Pemetrexed (first compound 0.1265 µM) it was 0.895; with Serdemetan + Pemetrexed (first compound 0.4 µM) it was 1.07; in the test with Serdemetan + Pemetrexed (first compound 1.265 µM) it was 0.908; in the test with Serdemetan + Pemetrexed (first compound 4 µM), 0.722; in the test with Selisistat + Dasatinib (first compound 0.4 µM), 0.166. The relative viability in the test with Selisistat + Dasatinib (first compound 1.265 µM) was 0.176; in the test with Selisistat + Dasatinib (first compound 4 µM) it was 0.186; with Selisistat + Dasatinib (first compound 12.65 µM), 0.191; in the test with Selisistat + Dasatinib (first compound 40 µM), 0.184; with Serdemetan + Bortezomib (first compound 0.04 µM), 1.15; with Serdemetan + Bortezomib (first compound 0.1265 µM), 0.921. The relative viability with Serdemetan + Bortezomib (first compound 0.4 µM) was determined as 1.24; with Serdemetan + Bortezomib (first compound 1.265 µM), 1.1; with Serdemetan + Bortezomib (first compound 4 µM), 0.988; with Serdemetan + Tozasertib (first compound 0.04 µM) it was 0.378; with Serdemetan + Tozasertib (first compound 0.1265 µM) it was 0.298; in the test with Serdemetan + Tozasertib (first compound 0.4 µM), 0.337. Moreover, the relative viability with Serdemetan + Tozasertib (first compound 4 µM) amounted to 0.294.

Turning to SW 1573, the relative viability was found to be 0.869 with Serdemetan + Pemetrexed (first compound 0.04 µM); 0.851 with Serdemetan + Pemetrexed (first compound 0.1265 µM); 0.887 with Serdemetan + Pemetrexed (first compound 0.4 µM); 0.689 with Serdemetan + Pemetrexed (first compound 1.265 µM); 0.376 with Serdemetan + Pemetrexed (first compound 4 µM); 0.567 with Selisistat + Dasatinib (first compound 0.4 µM). Besides, the relative viability with Selisistat + Dasatinib (first compound 1.265 µM) is 0.385; with Selisistat + Dasatinib (first compound 4 µM) it was 0.456; with Selisistat + Dasatinib (first compound 12.65 µM), 0.616; with Selisistat + Dasatinib (first compound 40 µM), 0.499; in the test with Serdemetan + Bortezomib (first compound 0.04 µM) it was 0.931; in the test with Serdemetan + Bortezomib (first compound 0.1265 µM), 1.01. For the same cell line, the relative viability stood at 0.892 with Serdemetan + Bortezomib (first compound 0.4 µM); 0.308 with Serdemetan + Bortezomib (first compound 1.265 µM); 0.242 with Serdemetan + Bortezomib (first compound 4 µM); 0.168 with Serdemetan + Tozasertib (first compound 0.04 µM); 0.15 with Serdemetan + Tozasertib (first compound 0.1265 µM); 0.218 with Serdemetan + Tozasertib (first compound 0.4 µM). Also, the relative viability with Serdemetan + Tozasertib (first compound 1.265 µM) came to 0.248; with Serdemetan + Tozasertib (first compound 4 µM), 0.18.
